According to patent US8329755B2, “Methods for treating retroviral infections” (Roche Palo Alto LLC, priority 2004, dated 2012):

| melting point | Compound |
| --- | --- |
| 64.8 to 65.4 °C | Cc1cc(N2CCS(=O)(=O)CC2)ccc1NC(=O)Cc1ccc(C)c(Oc2cc(Cl)cc(C#N)c2)c1 [Compound I-161, 2-[3-(3-Chloro-5-cyano-phenoxy)-4-methyl-phenyl]-N-[4-(1,1-dioxo-1λ^6-thiomorpholin-4-yl)-2-methyl-phenyl]-acetamide] |
| 198.5 to 201 °C | Cc1cc(S(N)(=O)=O)ccc1NC(=O)Cc1ccc(Cl)c(Oc2cc(C#N)cc(C(C)(F)F)c2)c1F [Compound I-96, 2-{4-Chloro-3-[3-cyano-5-(1,1-difluoro-ethyl)-phenoxy]-2-fluoro-phenyl}-N-(2-methyl-4-sulfamoyl-phenyl)-acetamide] |
| 121 to 123.5 °C | O=C(Cc1ccc(Cl)c(C(=O)c2cc(Cl)ccc2Cl)c1)Nc1ccccc1Cl [Compound I-248, 2-[4-Chloro-3-(2,5-dichloro-benzoyl)-phenyl]-N-(2-chloro-phenyl)-acetamide] |
| 263 to 264.4 °C | Cc1cc(S(N)(=O)=O)ccc1NC(=O)Cc1ccc(Cl)c(C(=O)c2cc(Cl)cc(Cl)c2)c1 [Compound I-252, 2-[4-Chloro-3-(3,5-dichloro-benzoyl)-phenyl]-N-(2-methyl-4-sulfamoyl-phenyl)-acetamide] |
| 210.5 to 214 °C | N#Cc1cc(Cl)cc(Oc2cc(CC(=O)Nc3ccc(S(N)(=O)=O)cc3)ccc2Cl)c1 [Compound I-1, 2-[4-Chloro-3-(3-chloro-5-cyano-phenoxy)-phenyl]-N-(4-sulfamoyl-phenyl)-acetamide] |
| 181.1 to 183.9 °C | CCc1ccc(CC(=O)Nc2ccc(S(N)(=O)=O)cc2Cl)cc1Oc1cc(Cl)cc(C#N)c1 [Compound I-47, 2-[3-(3-Chloro-5-cyano-phenoxy)-4-ethyl-phenyl]-N-(2-chloro-4-sulfamoyl-phenyl)-acetamide] |
| 212 to 216.9 °C | CCC(=O)N(C)S(=O)(=O)c1ccc(NC(=O)Cc2ccc(Cl)c(Oc3cc(Cl)cc(C#N)c3)c2F)c(C)c1 [Compound I-99, 2-[4-Chloro-3-(3-chloro-5-cyano-phenoxy)-2-fluoro-phenyl]-N-[2-methyl-4-(methyl-propionyl-sulfamoyl)-phenyl]-acetamide] |
| 218 to 219 °C | N#Cc1cc(C#N)cc(Oc2cc(CC(=O)Nc3ccc(S(N)(=O)=O)cc3)ccc2Cl)c1 [Compound I-2, 2-[4-Chloro-3-(3,5-dicyano-phenoxy)-phenyl]-N-(4-sulfamoyl-phenyl)-acetamide] |
| 141.1 to 144.9 °C | O=C(Cc1cc2c(c(C(=O)c3ccc(Cl)cc3)c1)OCC2)Nc1ccccc1Cl [Compound I-240, 2-[7-(4-Chloro-benzoyl)-2,3-dihydro-benzofuran-5-yl]-N-(2-chloro-phenyl)-acetamide] |
| 154 to 155.5 °C | CCc1ccc(CC(=O)Nc2ccccc2Cl)cc1Oc1cc(Cl)ccc1Br [Compound I-16, 2-[3-(2-Bromo-5-chloro-phenoxy)-4-ethyl-phenyl]-N-(2-chloro-phenyl)-acetamide] |
| 167.9 to 170.5 °C | CCc1ccc(CC(=O)Nc2ccc(S(N)(=O)=O)cc2)cc1Oc1cc(C#N)cc(F)c1Cl [Compound I-49, 2-[3-(2-Chloro-5-cyano-3-fluoro-phenoxy)-4-ethyl-phenyl]-N-(4-sulfamoyl-phenyl)-acetamide] |
| 78.9 to 79.5 °C | Cc1cc(S(=O)(=O)CCCO)ccc1NC(=O)Cc1ccc(C)c(Oc2cc(Cl)cc(C#N)c2)c1 [Compound I-157, 2-[3-(3-Chloro-5-cyano-phenoxy)-4-methyl-phenyl]-N-[4-(3-hydroxy-propane-1-sulfonyl)-2-methyl-phenyl]-acetamide] |
| 215.1 to 216.6 °C | NS(=O)(=O)c1ccc(NC(=O)Cc2cc(Oc3cc(Cl)cc(Cl)c3)c3occc3c2)c(Cl)c1 [Compound I-149, N-(2-Chloro-4-sulfamoyl-phenyl)-2-[7-(3,5-dichloro-phenoxy)-benzofuran-5-yl]-acetamide] |
| 219.3 to 221.5 °C | NS(=O)(=O)c1ccc(NC(=O)Cc2ccc(Cl)c(Cc3cc(Cl)ccc3Cl)c2)c(Cl)c1 [Compound I-209, 2-[4-Chloro-3-(2,5-dichloro-benzyl)-phenyl]-N-(2-chloro-4-sulfamoyl-phenyl)-acetamide] |
| 232.1 to 234.6 °C | Cc1cc(S(N)(=O)=O)ccc1NC(=O)Cc1ccc(Cl)c(Oc2c(C)cc(C#N)cc2C)c1 [Compound I-56, 2-[4-Chloro-3-(4-cyano-2,6-dimethyl-phenoxy)-phenyl]-N-(2-methyl-4-sulfamoyl-phenyl)-acetamide] |
| 134.7 to 135.5 °C | Cc1cc(CC(=O)Nc2ccccc2Cl)cc(C(=O)c2ccc(Cl)cc2)c1 [Compound I-258, 2-[3-(4-Chloro-benzoyl)-5-methyl-phenyl]-N-(2-chloro-phenyl)-acetamide] |
| 199.3 to 199.6 °C | Cl.N#Cc1cc(Cl)cc(Oc2c(Cl)ccc(CC(=O)Nc3ccc(S(=O)(=O)NC(=O)CCN)cc3Cl)c2F)c1 |
| 131.1 to 132.2 °C | Cc1ccc(CC(=O)Nc2ccccc2Cl)cc1Oc1cc(F)cc(C#N)c1 [Compound I-12, N-(2-Chloro-phenyl)-2-[3-(3-cyano-5-fluoro-phenoxy)-4-methyl-phenyl]-acetamide] |

| melting point | Compound |
| --- | --- |
| 129.4 to 131.6 °C | Cc1ccc(C#N)cc1C(=O)c1cc(CC(=O)Nc2ccccc2Cl)ccc1C [Compound I-267, N-(2-Chloro-phenyl)-2-[3-(5-cyano-2-methyl-benzoyl)-4-methyl-phenyl]-acetamide] |
| 155.5 to 155.8 °C | CCc1ccc(CC(=O)Nc2ccccc2Cl)cc1Oc1cc(Br)cc(Br)c1Cl [Compound I-38, N-(2-Chloro-phenyl)-2-[3-(3,5-dibromo-2-chloro-phenoxy)-4-ethyl-phenyl]-acetamide] |
| 195.3 to 197.2 °C | CCN(CC)CC(=O)NS(=O)(=O)c1ccc(NC(=O)Cc2ccc(Cl)c(Oc3cc(Cl)cc(C#N)c3)c2F)c(Cl)c1.Cl |
| 189.3 to 192.3 °C | CCc1ccc(CC(=O)Nc2ccccc2)cc1Oc1cc(C#N)cc(C#N)c1Cl [Compound I-208, 2-[3-(2-Chloro-3,5-dicyano-phenoxy)-4-ethyl-phenyl]-N-phenyl-acetamide] |
| 239.9 to 240.8 °C | COc1ccc(CC(=O)Nc2ccc(S(N)(=O)=O)cc2C)c(F)c1Oc1cc(Cl)cc(C#N)c1 [Compound I-191, 2-[3-(3-Chloro-5-cyano-phenoxy)-2-fluoro-4-methoxy-phenyl]-N-(2-methyl-4-sulfamoyl-phenyl)-acetamide] |
| 224.3 to 228.1 °C | Cc1cc(S(N)(=O)=O)ccc1NC(=O)Cc1ccc(C)c(C(=O)c2cc(C#N)ccc2C)c1 [Compound I-265, 2-[3-(5-Cyano-2-methyl-benzoyl)-4-methyl-phenyl]-N-(2-methyl-4-sulfamoyl-phenyl)-acetamide] |
| 237.6 to 238.4 °C | CCc1ccc(CC(=O)Nc2ccc(S(N)(=O)=O)cc2C)c(F)c1Oc1cc(C#N)cc(C(F)F)c1 [Compound I-180, 2-[3-(3-Cyano-5-difluoromethyl-phenoxy)-4-ethyl-2-fluoro-phenyl]-N-(2-methyl-4-sulfamoyl-phenyl)-acetamide] |
| 135.7 to 138.1 °C | N#Cc1cc(C#N)cc(Oc2c(Cl)ccc(CC(=O)Nc3ccc(S(N)(=O)=O)cc3)c2F)c1 [Compound I-9, 2-[4-Chloro-3-(3,5-dicyano-phenoxy)-2-fluoro-phenyl]-N-(4-sulfamoyl-phenyl)-acetamide] |
| 168.3 to 170.4 °C | COc1ccc(NC(=O)Cc2ccc(C)c(Oc3cc(Cl)cc(C#N)c3)c2)c(C)n1 [Compound I-229, 2-[3-(3-Chloro-5-cyano-phenoxy)-4-methyl-phenyl]-N-(6-methoxy-2-methyl-pyridin-3-yl)-acetamide] |
| 92.4 to 95.5 °C | Cc1cc(S(=O)(=O)CCN)ccc1NC(=O)Cc1ccc(C)c(Oc2cc(Cl)cc(C#N)c2)c1 [Compound I-154, N-[4-(2-Amino-ethanesulfonyl)-2-methyl-phenyl]-2-[3-(3-chloro-5-cyano-phenoxy)-4-methyl-phenyl]-acetamide] |
| 198.1 to 202.6 °C | CCc1ccc(CC(=O)Nc2ccc(S(N)(=O)=O)cc2)cc1Oc1cc(Cl)ccc1C#N [Compound I-17, 2-[3-(5-Chloro-2-cyano-phenoxy)-4-ethyl-phenyl]-N-(4-sulfamoyl-phenyl)-acetamide] |
| 174.8 to 176.4 °C | Cc1cc(OCC(=O)O)ccc1NC(=O)Cc1ccc(C)c(Oc2cc(Cl)cc(C#N)c2)c1 [Compound I-234, (4-{2-[3-(3-Chloro-5-cyano-phenoxy)-4-methyl-phenyl]-acetylamino}-3-methyl-phenoxy)-acetic acid] |
| 219 to 221.4 °C | N#Cc1cc(Oc2cc(CC(=O)Nc3ccc(S(N)(=O)=O)cc3)ccc2Cl)cc(C(F)(F)F)c1 [Compound I-88, 2-[4-Chloro-3-(3-cyano-5-trifluoromethyl-phenoxy)-phenyl]-N-(4-sulfamoyl-phenyl)-acetamide] |
| 213.2 to 219.6 °C | CCc1ccc(CC(=O)Nc2ccc(S(N)(=O)=O)cc2C)cc1Oc1cc(Cl)cc(Br)c1Cl [Compound I-36, 2-[3-(3-Bromo-2,5-dichloro-phenoxy)-4-ethyl-phenyl]-N-(2-methyl-4-sulfamoyl-phenyl)-acetamide] |
| 218 to 220.4 °C | Cc1cc(S(N)(=O)=O)ccc1NC(=O)Cc1ccc(C)c(Oc2cc(C#N)cc(C(F)F)c2)c1F [Compound I-85, 2-[3-(3-Cyano-5-difluoromethyl-phenoxy)-2-fluoro-4-methyl-phenyl]-N-(2-methyl-4-sulfamoyl-phenyl)-acetamide] |
| 213.9 to 216.1 °C | NS(=O)(=O)c1ccc(NC(=O)Cc2ccc(Cl)c(C(=O)c3cc(Cl)ccc3Cl)c2)cc1 [Compound I-250, 2-[4-Chloro-3-(2,5-dichloro-benzoyl)-phenyl]-N-(4-sulfamoyl-phenyl)-acetamide] |
| 163.3 to 164.4 °C | Cc1ccc(CC(=O)Nc2ccccc2Cl)c(F)c1Oc1cc(C#N)cc(C(F)F)c1 [Compound I-86, N-(2-Chloro-phenyl)-2-[3-(3-cyano-5-difluoromethyl-phenoxy)-2-fluoro-4-methyl-phenyl]-acetamide] |
| 159 to 161.1 °C | COc1cc(CC(=O)Nc2ccc(S(N)(=O)=O)cc2Cl)cc(Oc2cc(Cl)cc(C#N)c2)c1 [Compound I-136, 2-[3-(3-Chloro-5-cyano-phenoxy)-5-methoxy-phenyl]-N-(2-chloro-4-sulfamoyl-phenyl)-acetamide] |
